# Laboratory results as given in ChEMBL document CHEMBL1137013, “Discovery of (2R)-2-(3-{3-[(4-Methoxyphenyl)carbonyl]-2-methyl-6-(trifluoromethoxy)-1H-indol-1-yl}phenoxy)butanoic acid (MK-0533): a novel selective peroxisome proliferator-activated receptor gamma modulator for the treatment of type 2 diabetes mellitus with a reduced potential to increase plasma …” (J Med Chem, 2009).
# Calls of active or inactive are those of the source. No cut-off for these calls is given here.
# Columns and labels:
# [1] = Volume of distribution at steady state in rat; assay type: ADME, organism-based; details: in vivo, read-out: Vdss
# [2] = Volume of distribution at steady state in dog; assay type: ADME, organism-based, Canis lupus familiaris; details: in vivo, read-out: Vdss
# Rattus norvegicus [3] = experiment: Toxicity in obese insulin-resistant Zucker fa/fa rat assessed as increase in heart weight volume at 3 to 150 mg/kg, po once daily for 7 days; assay type: organism-based; design: dose 3-150 mg/kg, route oral; details: in vivo, 168 h
# [4] = AUC in obese insulin-resistant Zucker fa/fa rat at 150 mg/kg, po once daily for 7 days; assay type: ADME, organism-based; design: dose 150 mg/kg, route oral; details: plasma
# [5] = Oral bioavailability in dog; assay type: ADME, organism-based, Canis lupus familiaris; details: in vivo
# Mus musculus = experiment: Antihyperglycemic activity in db/db mouse assessed as reduction in blood glucose level at 30 mg/kg, po administered once daily for 11 days; assay type: functional; design: scale not given: the % may be the effect or the level left
# [6] = Oral bioavailability in monkey; assay type: ADME, organism-based, Macaca mulatta; details: rhesus monkey, in vivo
# [7] = biological target: T1, Peroxisome proliferator-activated receptor gamma (Homo sapiens, UniProt P37231)
# T1 sequence (P37231 whole entry): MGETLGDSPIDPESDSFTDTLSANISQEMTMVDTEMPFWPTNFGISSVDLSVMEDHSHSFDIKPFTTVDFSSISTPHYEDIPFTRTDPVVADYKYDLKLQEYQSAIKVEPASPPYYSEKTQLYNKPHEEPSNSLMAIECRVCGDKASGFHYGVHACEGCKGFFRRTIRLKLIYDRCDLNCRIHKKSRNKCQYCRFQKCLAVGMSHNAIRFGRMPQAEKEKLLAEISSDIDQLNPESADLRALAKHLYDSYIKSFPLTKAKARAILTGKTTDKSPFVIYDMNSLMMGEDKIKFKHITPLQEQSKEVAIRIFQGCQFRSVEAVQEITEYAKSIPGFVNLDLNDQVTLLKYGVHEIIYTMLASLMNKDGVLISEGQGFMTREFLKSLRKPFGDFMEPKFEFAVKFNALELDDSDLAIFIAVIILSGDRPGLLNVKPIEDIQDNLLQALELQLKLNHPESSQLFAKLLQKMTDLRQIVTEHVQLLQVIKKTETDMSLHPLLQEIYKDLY
# Description: Agonist activity at human recombinant PPARgamma expressed in COS1 cells co-expressing GAL4 assessed as transcriptional activity after 48 hrs by luciferase reporter gene assay
# [8] = AUC in obese insulin-resistant Zucker fa/fa rat at 3 mg/kg, po once daily for 7 days; assay type: ADME, organism-based; design: dose 3 mg/kg, route oral; details: plasma
# Plasma = experiment: Protein binding in rat plasma assessed per mg of protein; assay type: ADME, cell-free
# [9] = Plasma clearance in rat; assay type: ADME, organism-based
# Rattus norvegicus [10] = experiment: Toxicity in Sprague-Dawley rat assessed as heart weight at 300 mg/kg dosed daily for 2 weeks; assay type: organism-based; design: dose 300 mg/kg; details: in vivo, 336 h
# [11] = AUC in obese insulin-resistant Zucker fa/fa rat at 100 mg/kg, po once daily for 7 days; assay type: ADME, organism-based; design: dose 100 mg/kg, route oral; details: plasma
# [12] = Terminal half life in rat; assay type: ADME, organism-based; details: in vivo, read-out: beta t1/2 (converted)
# Liver microsomes = experiment: Protein binding in human liver microsomes assessed per mg of protein; assay type: ADME, Microsome
# [13] = Inhibition of CYP450; assay type: ADME
# [14] = Terminal half life in dog; assay type: ADME, organism-based, Canis lupus familiaris; details: in vivo, read-out: beta t1/2 (converted)
# [15] = AUC in db/db mouse at 30 mg/kg, po administered once daily for 11 days; assay type: ADME, organism-based; design: dose 30 mg/kg, route oral; details: plasma
# [16] = biological target: T2, Peroxisome proliferator-activated receptor delta (Homo sapiens) (UniProt Q03181); experiment: Displacement of [3H2]nTZD4 from human recombinant GST-fused PPARdelta expressed in Escherichia coli at 10 uM by scintillation proximity assay
# T2 sequence (whole entry): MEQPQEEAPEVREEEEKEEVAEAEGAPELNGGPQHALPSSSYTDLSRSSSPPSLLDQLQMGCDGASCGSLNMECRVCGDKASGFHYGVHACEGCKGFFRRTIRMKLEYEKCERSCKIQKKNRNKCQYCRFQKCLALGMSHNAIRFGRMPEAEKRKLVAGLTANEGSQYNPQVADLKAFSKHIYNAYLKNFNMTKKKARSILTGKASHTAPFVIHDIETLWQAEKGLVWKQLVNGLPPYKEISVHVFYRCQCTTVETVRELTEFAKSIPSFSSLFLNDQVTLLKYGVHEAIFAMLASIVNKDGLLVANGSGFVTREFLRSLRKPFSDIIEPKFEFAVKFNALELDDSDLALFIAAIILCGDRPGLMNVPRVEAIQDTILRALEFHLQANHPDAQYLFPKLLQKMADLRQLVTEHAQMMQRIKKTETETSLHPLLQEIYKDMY
# [17] = AUC in Sprague-Dawley rat at 300 mg/kg dosed daily for 2 weeks; assay type: ADME, organism-based; design: dose 300 mg/kg; details: plasma
# [18] = Terminal half life in monkey; assay type: ADME, organism-based, Macaca mulatta; details: rhesus monkey, in vivo; read-out: beta t1/2 (converted)
# Rattus norvegicus [19] = experiment: Antidiabetic activity in obese insulin-resistant Zucker fa/fa rat assessed as decrease in plasma triglyceride level at 3 to 150 mg/kg, po once daily for 7 days; assay type: functional, organism-based
# [20] = biological target: T3, Peroxisome proliferator-activated receptor alpha (Homo sapiens, UniProt Q07869); experiment: Displacement of [3H2]nTZD3 from human recombinant GST-fused PPARalpha expressed in Escherichia coli by scintillation proximity assay
# T3 sequence (Q07869 whole entry): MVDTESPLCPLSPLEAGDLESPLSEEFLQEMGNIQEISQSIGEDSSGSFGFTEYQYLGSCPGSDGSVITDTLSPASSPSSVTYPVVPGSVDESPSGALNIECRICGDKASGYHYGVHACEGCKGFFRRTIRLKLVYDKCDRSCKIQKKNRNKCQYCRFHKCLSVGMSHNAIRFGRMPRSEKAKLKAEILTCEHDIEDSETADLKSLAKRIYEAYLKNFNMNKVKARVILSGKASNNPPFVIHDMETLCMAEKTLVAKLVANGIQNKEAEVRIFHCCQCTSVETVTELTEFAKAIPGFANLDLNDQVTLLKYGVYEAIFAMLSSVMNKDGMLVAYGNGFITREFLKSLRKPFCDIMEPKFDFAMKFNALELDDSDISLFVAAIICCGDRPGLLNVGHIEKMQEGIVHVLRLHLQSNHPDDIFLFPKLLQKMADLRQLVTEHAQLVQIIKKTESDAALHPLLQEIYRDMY
# [21] = Cmax in monkey; assay type: ADME, organism-based, Macaca mulatta; details: rhesus monkey, in vivo
# Cricetinae = experiment: Agonist activity at hamster PPARalpha at 3000 nM; assay type: functional
# Rattus norvegicus [22] = experiment: Toxicity in obese insulin-resistant Zucker fa/fa rat assessed as increase in plasma volume at 100 mg/kg, po once daily for 7 days by Evans blue dye dilution technique; details: in vivo, 168 h
# Liver = experiment: Protein binding in rat liver assessed per mg of protein; assay type: ADME, tissue-based
# [23] = AUC in obese insulin-resistant Zucker fa/fa rat at 30 mg/kg, po once daily for 7 days; assay type: ADME, organism-based; design: dose 30 mg/kg, route oral; details: plasma
# [24] = biological target: T4, Peroxisome proliferator-activated receptor alpha (Homo sapiens) (UniProt Q07869); experiment: Agonist activity at human recombinant PPARalpha expressed in COS1 cells coexpressing GAL4 assessed as transcriptional activity at 3000 nM after 48 hrs by luciferase reporter gene assay; assay type: functional, cell-based; details: COS-1
# T4 sequence (whole entry): T3 sequence (Q07869 whole entry)
# [25] = Agonist activity at hamster PPARalpha; assay type: functional, Cricetinae; details: read-out: EC50
smiles,measurement,setting,value
CC[C@@H](Oc1cccc(-n2c(C)c(C(=O)c3ccc(OC)cc3)c3ccc(OC(F)(F)F)cc32)c1)C(=O)O [MK-0533],Vd,[1],1.4 L/kg
same,Vd,[2],1.4 L/kg
same,Activity,Rattus norvegicus [3],Non-toxic
same,AUC at 168 h,[4],4520 µM·h
same,bioavailability,[5],59%
same,Activity,Mus musculus,83%
same,bioavailability,[6],25%
same,EC50,[7],2 nM
same,AUC at 168 h,[8],6 µM·h
same,PPB,Plasma,< 10 pmol
same,clearance,[9],18.3 mL/min/kg
same,Activity,Rattus norvegicus [10],1.1 g
same,AUC at 168 h,[11],1480 µM·h
same,half-life,[12],1.6 h
same,PB,Liver microsomes,< 10 pmol
same,INH,[13],> 10 µM
same,half-life,[14],3.6 h
same,AUC at 264 h,[15],60 µM·h
same,Activity,[16],inactive
same,AUC at 336 h,[17],954 µM·h
same,half-life,[18],3.2 h
same,Activity,Rattus norvegicus [19],Active
same,IC50,[20],> 50000 nM
same,Cmax,[21],500 nM
same,Activity,Cricetinae,52%
same,Activity,Rattus norvegicus [22],Toxic
same,PB,Liver,< 10 pmol
same,AUC at 168 h,[23],115 µM·h
same,Activity,[24],33%
same,EC50,[25],330 nM
